Measurements from patent US6218365A, “Serine protease inhibitors” (Akzo Nobel N.V., priority 1996, dated 2001).
Values belong to the substance of their own block, whether it stands above or below them.

Molecular target: T1, Human thrombin (Homo sapiens, UniProt P00734)
T1 construct: purchased Centraal Laboratorium voor Bloedtransfusie, Amsterdam, The Netherlands
Assay: Anti-thrombin assay (hydrolysis of chromogenic substrate S-2238 by thrombin)
Type: biochemical
Details: final concentration causing 50% inhibition of the maximum absorbance of the blank; substrate S-2238, TNP buffer, 37° C.
Protocol: Thrombin (Factor IIa) is a factor in the coagulation cascade. The anti-thrombin activity of compounds of the present invention was assessed by measring spectrophotometrically the rate of hydrolysis of the chromogenic substrate s-2238 exterted by thrombin. Ths assay for anti-thrombin activity in a buffer system was used to assess the IC50 -value of a test compound.
Test medium: Trometbine-NaCl-polyethylene glycol 6000 (TNP) buffer. Reference compomd: 12581 (Kabi) Vehicle: TNP buffer. Solubilisation can be assisted with dimethylsulphoxide, methanol, ethanol, acetonitrile or tert.-butyl alcohol which are without adverse effects in concentrations up to 2.5% in the final reaction mixture.
Reagents*: 1. Tromethamine-NaCl (TN) buffer. Composition of the buffer: Tromethaine (Tris) 6.057 g (50 mmol), NaCl 5.844 g (100 mmol), water to 1 l. The pH of the solution is adjusted to 7.4 at 37° C. with HCl (10 mmol·l^-1). 2. TNP buffer: Polyethylene glycol 6000 is dissolved in TN buffer to give a concentration of 3 g·l^-1 3. S-2238 solution: One vial S-2238 (25 mg; Kabi Diagnostica, Sweden) is dissolved in 20 ml TN buffer to give a concentration of 1.25 mg·ml^-1 (2 mmol l^-1). 4. Thrombin solution: Human thrombin (16 000 nKat·vial^-1; Centraal Laboratorium voor Bloedtransfusie, Amsterdam, The Netherlands) is dissolved in TNP buffer to give a stock solution of 835 nKat·ml^-1. Immediately before use this solution is diluted with TNP buffer to give a concentration of 3.34 nKat·ml^-1.
The test and reference compounds are dissolved in Milli-Q water to give stock concentrations of 10^-2 mol·l^31 1. Each concentration is stepwise diluted with the vehicle to give concentrations of 10^-3, 10^31 4 and 10^-5 mol·l^-1. The dilutions, including the stock solution, are used in the assay (fina concentrations in the reaction mixture: 3·10^-3; 10^31 3; […]; 3·10^-5; 10^-5; 3·10^-6 and 10^-6 mol·l^-1, respectively).
At room temperature 0.075 ml and 0.025 ml test compound or reference compound solutions or vehicle are alternately pipetted into the wells of a microtiter plate and these solutions are diluted with 0.115 ml and […] TNP buffer, respectively. An aliquot of 0.030 ml S-2238 solution is added to each well and the plate is preheated and pre-incubated with shaking in an incubator (Amersham) for 10 min. at 37° C. Following pre-incubation the hydrolysis of S-2238 is started by addition of 0.030 ml thrombin solution to each well. The plate is incubated (with shaking for 30 s) at 37° C. Starting after 1 min of incubation, the absorbance of each sample at 405 nm is measured every 2 min. for a period of 90 min. using a kinetic microtiter plate reader (Twinreader plus, Flow Laboratories).
All data are collected in an IBM personal computer using LOTUS-MEASURE. For each compound concentration (expressed in mol·l^-1 reaction mixture) and for the blank the absorbance is plotted versus the reaction time in min.
Evaluation of responses: For each final concentration the maximum absorbance was calculated from the assay plot. The IC50 -value (final concentration, expressed in μmol·l^-1, causing 50% inhibition of the maximum absorbance of the blank) was calculated using the logit transformation analysis according to Hafier et al. (Arzneim.-Forsch.ADrug Res. 1977; 27(II): 1871-3).

Substance: 3,3-Diphenyipropionyl--Pro--Ppa.PSI.[COCO]--OH [Example 15]
IC50: 950 nM

Substance: EthylSOx --D--Phe--Pr0--.PSI.[COCO]--NH2 [Example 38]
IC50: 1800 nM

Substance: HOOC--CH2 --D--Cha--Pro--Ppa.PSI.[COCO]--NHMe [Example 31]
IC50: 245 nM

Substance: HOOC--CH2 --D--Phe--Pro--Ppa.PSI.[COCO]--OH [Example 3]
IC50: 540 nM

Second part, the substance after the results:

IC50: 2600 nM
Substance: HOOC--CH2 --D--Coa--Pro--Ppa--(2-thiazolyl) [Example 53]

IC50: 2830 nM
Substance: HOOC--CH2 --p--Cl--D--Phe--Pro--Ppa--(2-thiazolyl) [Example 47]
